From patent publication US11285127B2, “Compositions and methods for lowering triglycerides without raising LDL-C levels in a subject on concomitant statin therapy” (Amarin Pharmaceuticals Ireland Limited, priority 2013, dated 2022)

Test system: patients with fasting triglyceride levels >200 mg/dl and <500 mg/dl despite statin therapy
Assay: 12-week study: plasma fatty acids (EPA concentration, FADI ratios) by gas chromatography/flame ionization detection
Format: in vivo, human
Conditions: 4 g/day, placebo-adjusted, 12 weeks
Method: A multi-center, placebo-controlled, randomized, double-blind, 12-week study was performed to evaluate the efficacy and safety of >96% E-EPA in patients with fasting triglyceride levels >200 mg/dl and <500 mg/dl despite statin therapy (the mean of two qualifying entry values needed to be >185 mg/dl and at least one of the values needed to be >200 mg/dl). The primary objective of the study was to determine the efficacy of >96% E-EPA 2 g daily and 4 g daily, compared to placebo, in lowering fasting TG levels in patients with high risk for cardiovascular disease and with fasting TG levels 200 mg/dl and <500 mg/dl, despite treatment to LDL-C goal on statin therapy. The secondary objectives of this study were the following: • 1. To determine the safety and tolerability of >96% E-EPA 2 g daily and 4 g daily; • 2. To determine the effect of >96% E-EPA on lipid and apolipoprotein profiles including total cholesterol (TC), non-high-density lipoprotein cholesterol (non-HDL-C), low density lipoprotein cholesterol (LDL-C), high density lipoprotein cholesterol (HDL-C), and […]; • 3. To determine the effect of >96% E-EPA on lipoprotein associated phospholipase A2 (Lp-PLA2) from baseline to week 12; • 4. To determine the effect of >96% E-EPA on low-density lipoprotein (LDL) particle number and size; • 5. […]

CC/C=C\C/C=C\C/C=C\C/C=C\C/C=C\CCCC(=O)OCC [AMR101, ethyl eicosapentaenoate]
FADI-16 (Palmitoleic acid/Palmitic acid, C16:1/C16:0), % Change, Plasma: −6.8%
FADI-18 (Oleic acid/Stearic Acid, C18:1/C18:0), % Change, Plasma: −9.8%
